This note sets out measurements from US5958416A, “Heat shock protein peptides and methods for modulating autoimmune central nervous system disease” (Regents of the University of Minnesota, priority 1995, dated 1999).

Test [1] relates to experimental autoimmune encephalomyelitis (EAE). Description: Modulation of EAE by pre-immunization with CNP 173-184 peptide-KLH (Example 4). In kind it is in vivo, Lewis rats.
Test [2] has as its system IgG antibodies in CSF and sera of MS and OND patients. Description: Dot-blot analysis of patient CSF and sera for antibodies to CNP 173-184 peptide. The format is binding, human. The protocol:
Cerebrospinal fluid (CSF) and sera from MS patients and controls were analyzed for antibodies to the peptide derived from CNP isoform 2 (corresponding to amino acids 173-184) using dot-blot analyses. Samples from nine MS patients and five patients with other neurologic diseases (OND) were analyzed. The CNP 173-184 peptide coupled to BSA was adsorbed onto nitrocellulose membranes. Control wells received BSA alone. Two dilutions of paired spinal fluids and sera were added to the wells and the amount of antibody binding determined using peroxidase labeled anti-human IgG and an enhanced chemiluminescent assay (ECL Western Blotting Kit; Amersham International, Plc., Buckinghamshire, England). Using the public domain program, Image 1.40 (available from NIH), the integrated densities of the dots in the CNP 173-184 peptide wells and BSA wells were determined.

The subject of test [3] is experimental autoimmune encephalomyelitis (EAE). Description: Modulation of EAE by pre-immunization with HSP65 peptides not coupled to KLH (Example 9). The settings on record: 50 μg peptide not coupled to KLH, s.c., in IFA; 1 mg GPSC in CFA four weeks later. The format is in vivo, Lewis rats.
The test system of test [4] is Peripheral blood lymphocytes (PBL). In kind it is cell-based, human.
Setting [5] is: positive/tested, peptide coupled to BSA on nitrocellulose, data not shown.
Setting [6] is: chi-square p, PBL, listed as #6.

Entries after “also recorded” stand apart in the source; their conditions may differ. Like-named read-outs stand apart in the source and are kept apart here. No end group written: not given here.

“Leu-Lys-Lys-Leu-Lys-Pro-Gly-Leu-Glu-Lys-Asp-Phe (LKKLKPGLEKDF; also: coupled to BSA) [CNP 173-184 peptide, coupled to BSA in blots]”: the “EAE after GPSC challenge, pre-immunization in IFA” value in test [1] (50 μg s.c. in IFA, GPSC in CFA five to six weeks later) is given as “suppression of EAE”. Moreover, the “p, difference in EAE severity between peptide-IFA and KLH-IFA pre-immunized rats” value in test [1] (day 13 post GPSC-CFA immunization) is reported as less than 0.02. Also, the “Integrated densities in peptide wells relative to BSA wells” value in test [2] (MS CSF) was “approximately twofold higher”. Moreover, the “p, MS versus OND patients with CSF antibodies to the peptide” value in test [2] (chi square analysis) was less than 0.03. In test [2] (setting [5]), the “CSF samples with antibodies to the peptide, MS patients” value is on record as 5/9 and the “CSF samples with antibodies to the peptide, OND patients” value is 0/5. In test [2] (sera), the “Number of MS patients with antibodies to the peptide in sera” value was found to be 3 and the “Number of OND patients with antibodies to the peptide in sera” value was 1.
Consider “lys-gly-tyr-ile-ser-gly-tyr-phe-val-thr-asp-ala-glu-arg-gln (KGYISGYFVTDAERQ) [Peptide #6]”, for which the “Protection against EAE after pre-immunization with the peptide” value in test [3] was “did protect against or decrease the symptoms of EAE; also recorded: significantly decreases both the incidence and severity of EAE; also recorded: protects rats against EAE”. Further, the “T cell proliferative response elicited by the peptide” value in test [4] (PBL from MS and OND patients, greater than two-fold above background considered significant) is “elicited specific T cell proliferative responses in some MS patients compared with OND patients”. Moreover, in test [4] (Pearson correlation, PBL), the “Correlation of responsiveness to the peptide with responsiveness to M. tuberculosis, OND patients” value is “No significant correlations”; the “p, correlation of responsiveness to the peptide with responsiveness to M. tuberculosis, DR2+ MS females” value is listed as less than 0.02; the “p, correlation of responsiveness to the peptide with responsiveness to M. tuberculosis, DR2- MS males” value was less than 0.01; the “p, correlation of responsiveness to the peptide with responsiveness to M. tuberculosis, all MS patients” value is less than 0.01. Also, in test [4] (chi-square p, PBL), the “Difference in frequency of proliferative response, Group A greater than Group B: MS F vs MS M” value is reported as “greater response”; the “Difference in frequency of proliferative response, Group A greater than Group B: MS F vs OND M” value is “greater response”; the “Difference in frequency of proliferative response, Group A greater than Group B: MS F, DR2- VS MS M, DR2-” value is recorded as “responded more strongly”; the “Difference in frequency of proliferative response, Group A greater than Group B: MS F, DR2- vs MS F, DR2+” value is listed as “N.S”. The “Difference in frequency of proliferative response, Group A greater than Group B: MS M, DR2+ VS MS F, DR2+” value in test [4] (chi-square p, PBL) is “N.S”. Moreover, in test [4] (setting [6]), the “Difference in frequency of proliferative response, Group A greater than Group B: MS F vs MS M” value is given as less than 0.025; the “Difference in frequency of proliferative response, Group A greater than Group B: MS F vs OND M” value is on record as less than 0.0005; the “Difference in frequency of proliferative response, Group A greater than Group B: MS F, DR2- VS MS M, DR2-” value was less than 0.05.
